Laboratory results taken from ChEMBL document CHEMBL1150026, “Synthesis of 2,3-dideoxy-2,3-didehydronucleoside analogues as potential anti HIV agents” (Bioorg Med Chem Lett, 1992).
The source made the active and inactive calls. The calls are words filed in the database; no cut-off is given here.

system: C8166; assay: Compound was tested for antiviral activity against HIV C 8166 cells at a concentration of 5-50 uM; NS - No significant activity; format: functional, cell-based; conditions: Homo sapiens

Q: For `COc1nc(=O)n(C2C=CC(CO)O2)cc1C` (stereo not drawn), which Activity is on record?
A: Its Activity is “inactive”.

Q: With `CCSc1nc(=O)n(C2C=CC(CO)O2)cc1C` (stereo not drawn) as the compound, how does the Activity read?
A: Its Activity is “inactive”.

Q: `COC(=O)C(C(=O)OC)=C1NC(=O)N(C2C=CC(CO)O2)C=C1C` (stereo not drawn) was tested. Which Activity did it give?
A: Its Activity is “inactive”.
